Results from the supplement of paper PMC10307832.

Assays:
[1] = compound: CC1CC(=O)N(C2=CN=C(N=C2N1C3CCCC3)NC4=C(C=C(C=C4)C(=O)NC5CCN(CC5)C)OC)C [NPK76-II-72-1] + COc1cc2c(Oc3ccc(NC(=O)C4(C(=O)Nc5ccc(F)cc5)CC4)cc3F)ccnc2cc1OCCCN1CCOCC1 [Foretinib] (partner 0.25 µM); assay: relative viability (nuclei count vs DMSO), 5 days (fraction); higher = more cells survive
In short: (§1)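 Each reported value is a median over duplicate plates. It expresses relative viability: treated-well nuclei count divided by vehicle-well nuclei count. Lung cancer cell lines in 1536-well plates were dosed by pin tool a day after seeding, alone with one drug or with a fixed anchor-drug dose plus five library-drug doses (not always all listed) in √10 steps, and nuclei were counted after 5 days.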

BI-2536 + Tozasertib = compound: CC[C@@H]1C(=O)N(C)c2cnc(Nc3ccc(C(=O)NC4CCN(C)CC4)cc3OC)nc2N1C1CCCC1 [BI-2536] + Cc1cc(Nc2cc(N3CCN(C)CC3)nc(Sc3ccc(NC(=O)C4CC4)cc3)n2)n[nH]1 [Tozasertib] (partner 0.1 µM); assay: as above
In short: as §1

BEN showed a relative viability ([1]; first compound 0.01 µM) of 0.676, a relative viability ([1]; first compound 0.03162 µM) of 0.526 and a relative viability ([1]; first compound 0.1 µM) of 0.748. It also gave a relative viability ([1]; first compound 0.3162 µM) of 0.657, a relative viability ([1]; first compound 1 µM) of 0.635 and a relative viability (BI-2536 + Tozasertib; first compound 0.01 µM) of 0.524. It also gave a relative viability (BI-2536 + Tozasertib; first compound 0.03162 µM) of 0.546, a relative viability (BI-2536 + Tozasertib; first compound 0.1 µM) of 0.452 and a relative viability (BI-2536 + Tozasertib; first compound 0.3162 µM) of 0.58. The relative viability (BI-2536 + Tozasertib; first compound 1 µM) was 0.553.
NCI-H23 gave a relative viability ([1]; first compound 0.01 µM) of 0.955, a relative viability ([1]; first compound 0.03162 µM) of 0.88 and a relative viability ([1]; first compound 0.1 µM) of 0.954. For the same cell line, the relative viability ([1]; first compound 0.3162 µM) was 0.99, the relative viability ([1]; first compound 1 µM) was 0.973 and the relative viability (BI-2536 + Tozasertib; first compound 0.01 µM) was 0.331. It also gave a relative viability (BI-2536 + Tozasertib; first compound 0.03162 µM) of 0.458, a relative viability (BI-2536 + Tozasertib; first compound 0.1 µM) of 0.182 and a relative viability (BI-2536 + Tozasertib; first compound 0.3162 µM) of 0.142. For the same cell line, the relative viability (BI-2536 + Tozasertib; first compound 1 µM) was 0.141.
In the case of NCI-H1395, the relative viability ([1]; first compound 0.01 µM) was 1.02, the relative viability ([1]; first compound 0.03162 µM) was 0.959 and the relative viability ([1]; first compound 0.1 µM) was 0.954. For the same cell line, the relative viability ([1]; first compound 0.3162 µM) was 1.1, the relative viability ([1]; first compound 1 µM) was 0.95 and the relative viability (BI-2536 + Tozasertib; first compound 0.01 µM) was 0.668. The relative viability (BI-2536 + Tozasertib; first compound 0.03162 µM) was 0.729, the relative viability (BI-2536 + Tozasertib; first compound 0.1 µM) was 0.642 and the relative viability (BI-2536 + Tozasertib; first compound 0.3162 µM) was 0.399. It also gave a relative viability (BI-2536 + Tozasertib; first compound 1 µM) of 0.285.
201T showed a relative viability ([1]; first compound 0.01 µM) of 1.06, a relative viability ([1]; first compound 0.03162 µM) of 1.12 and a relative viability ([1]; first compound 0.1 µM) of 1.15. The relative viability ([1]; first compound 0.3162 µM) was 1.06, the relative viability ([1]; first compound 1 µM) was 1.27 and the relative viability (BI-2536 + Tozasertib; first compound 0.01 µM) was 0.996. The relative viability (BI-2536 + Tozasertib; first compound 0.03162 µM) was 0.925, the relative viability (BI-2536 + Tozasertib; first compound 0.1 µM) was 0.93 and the relative viability (BI-2536 + Tozasertib; first compound 0.3162 µM) was 0.41. For the same cell line, the relative viability (BI-2536 + Tozasertib; first compound 1 µM) was 0.388.
NCI-H2170 showed a relative viability ([1]; first compound 0.01 µM) of 0.909, a relative viability ([1]; first compound 0.03162 µM) of 0.975 and a relative viability ([1]; first compound 0.1 µM) of 1.01. The relative viability ([1]; first compound 0.3162 µM) was 0.885, the relative viability ([1]; first compound 1 µM) was 1.06 and the relative viability (BI-2536 + Tozasertib; first compound 0.01 µM) was 0.713. For the same cell line, the relative viability (BI-2536 + Tozasertib; first compound 0.03162 µM) was 0.89, the relative viability (BI-2536 + Tozasertib; first compound 0.1 µM) was 0.593 and the relative viability (BI-2536 + Tozasertib; first compound 0.3162 µM) was 0.177. For the same cell line, the relative viability (BI-2536 + Tozasertib; first compound 1 µM) was 0.249.
With NCI-H460 the relative viability ([1]; first compound 0.01 µM) was 0.931, the relative viability ([1]; first compound 0.03162 µM) was 1.02 and the relative viability ([1]; first compound 0.1 µM) was 0.996. The relative viability ([1]; first compound 0.3162 µM) was 1.01, the relative viability ([1]; first compound 1 µM) was 1.02 and the relative viability (BI-2536 + Tozasertib; first compound 0.01 µM) was 0.367. The relative viability (BI-2536 + Tozasertib; first compound 0.03162 µM) was 0.477, the relative viability (BI-2536 + Tozasertib; first compound 0.1 µM) was 0.336 and the relative viability (BI-2536 + Tozasertib; first compound 0.3162 µM) was 0.0323. It also gave a relative viability (BI-2536 + Tozasertib; first compound 1 µM) of 0.0403.
